US5292760A, “4-heteroaryl-1,3-benzodiazepines and 2-substituted-α-(heteroaryl)benzeneethanamines” (Hoechst-Roussel Pharmaceuticals Inc., priority 1992, dated 1994)
Counter-ions that a name gives are not always drawn. Like-named read-outs stand apart in the source and are kept apart here.

Tests used:
[1] = system: N-methyl-D-aspartic acid (NMDA)-induced seizures; experiment: N-Methyl-D,L-Aspartic Acid Induced Seizure Assay (NMDA protection); type: in vivo, male Swiss Webster mice; conditions: Mus musculus, 0.5 h; ip; N-methyl-D,L-aspartic acid 350 mg/kg, sc; total absence of clonic seizures during 30 minutes
Description: In this assay, male Swiss Webster mice (Charles River), 18-25 grams are used. Animals are ordered at 33 to 36 days of age and can be used for 8 days after arrival. They are housed for at least 24 hours in a climate controlled animal colony with food and water available ad libitum. On the day of testing, animals are brought to the laboratory and randomly assigned to groups. N-Methyl-D,L-aspartic acid (350 mg) is dissolved in 10 ml of saline and mixed thoroughly with a homogenizer for 1-2 minutes. Test compounds are prepared in distilled water and, if insoluable, a suitable surfactant is added. For a primary screen the test compound is administered at 60 mg/kg, ip (10 ml/kg), to groups of ten mice, 30 minutes prior to challenge with N-methyl-D,L-aspartic acid (350 mg/kg, sc). After N-Methyl-D,L-aspartic acid administration animals are placed individually in clear plastic cyclinders (12"×5.5"×1/4") and then observed for clonic seizures. N-methyl-D,L-aspartic acid will produce clonic seizures, and sometimes tonic seizures and death, in vehicle control animals.
A clonic convulsion is defined as a single episode of clonic spasms of a least a 3 second duration. A tonic seizure is defined as a brief period of hindlimb flexion followed by a prolonged period of hindlimb extension. The mice treated with N-methyl-D,L-aspartic acid are considered "protected" when there is a total absence of clonic seizures during the 30 minute observation period.
Test compounds are run at the time of peak effect. Three or more doses are used (10 animals per group).
Data is calculated by the method of J. T. Litchfield, Jr. and F. Wilcoxon. A test should be repeated if 40% of vehicle control animals are protected. The normalized percent formula is used when 10-30% of the vehicle control animals are protected.
The normalized percent protection is calculated using the following formula: […]

[2] = system: tetrabenazine induced ptosis; experiment: tetrabenazine induced ptosis assay in mice (antidepressant activity); type: in vivo; conditions: Mus musculus, ip, read-out: Anti-Depressant Activity ED50
[3] = system: Geller Conflict Paradigm in Rats; experiment: Geller Conflict Paradigm in Rats (anxiolytic activity); type: in vivo
Excerpt: The intraperitoneal (i.p.) dosages at which the following compounds show anxiolytic activity are: […]

[4] = system: supramaximal electroshock (SES); experiment: supramaximal electroshock (SES) assay (anticonvulsant activity); type: in vivo, male mouse; conditions: Mus musculus, ip, read-out: Anticonvulsant Activity ED50
Description: The Formula III compounds of this invention are useful as anticonvulsants due to their anticonvulsant activity in mammals. Anticonvulsant activity is measured in the male mouse using the supramaximal electroshock (SES) assay described in Arch. Int. Pharmacodyn. 92: 97-107, 1952. Intraperitoneal doses of representative compounds of the invention and their ability to protect from the effect of SES is shown below in Table 2. ED50 values, i.e., the doses at which, within 95% confidence intervals, 50% of the animals are protected are calculated by computerized probit analysis.

[5] = 50% inhibition of ptosis of tetrabenazine-induced depression in mice

## Cc1ccsc1C(N)Cc1ccccc1N.Cl.Cl (stereo not drawn) [2-Amino-α-(3-methyl-2-thienyl)benzeneethanamine dihydrochloride]
[1]
  ED50: 19 mg/kg

## CN(C)CCC=C1c2ccccc2COc2ccccc21 [Doxepin, reference compound]
[2]; [5]
  ED50: 3.8 mg/kg

## CCC1=Nc2ccccc2CC(c2cccs2)N1C.Cl (stereo not shown) [4,5-Dihydro-2-ethyl-3-methyl-4-(2-thienyl)-3H-1,3-benzodiazepine hydrochloride]
[2]; [5]
  ED50: 4.7 mg/kg

## CCC1=Nc2ccccc2CC(c2ccsc2)N1C.Cl (stereo not shown) [4,5-Dihydro-2-ethyl-3-methyl-4-(3-thienyl)-3H-1,3-benzodiazepine hydrochloride]
[2]; [5]
  ED50: 8.7 mg/kg

## CCNC(Cc1ccccc1N)c1sccc1C.Cl.Cl (stereo not drawn) [2-Amino-N-ethyl-α-(3-methyl-2-thienyl)benzeneethanamine dihydrochloride]
[3]; dose 1 m.g./kg i.p.
  Anti-Conflict Response, % Change Compared to Control: +100%
[3]; dose 5 m.g./kg i.p.
  Anti-Conflict Response, % Change Compared to Control: +70%

## CNC(Cc1cc(Br)ccc1N)c1sccc1C (stereo not drawn) [2-Amino-5-bromo-N-methyl-α-(3-methyl-2-thienyl)benzeneethaneamine]
[4]
  ED50: 9.2 mg/kg

## CCC1=Nc2ccccc2CC(c2ccncc2)N1C (stereo not shown) [4,5-Dihydro-2-ethyl-3-methyl-4-(4-pyridinyl)-3H-1,3-benzodiazepine hemihydrate]
[2]
  ED50: 6.8 mg/kg

## NC(CCCP(=O)(O)O)C(=O)O (stereo not shown) [2-Amino-5-phosphonovaleric acid, reference compound]
[1]
  ED50: 48.5 mg/kg

## CN1C(=O)CN=C(c2ccccc2)c2cc(Cl)ccc21 [Diazepam, reference compound]
[3]; dose 10 m.g./kg i.p.
  Anti-Conflict Response, % Change Compared to Control: +180%
[3]; dose 15 m.g./kg i.p.
  Anti-Conflict Response, % Change Compared to Control: +453%
[3]; dose 20 m.g./kg i.p.
  Anti-Conflict Response, % Change Compared to Control: +630%

## O=C1NC(=O)C(c2ccccc2)(c2ccccc2)N1 [Diphenylhydantoin, reference compound]
[4]; dose protecting 50% of the animals, 95% confidence, probit analysis
  ED50: 3.9 mg/kg

## CNC(Cc1ccc(C(F)(F)F)cc1N)c1sccc1C (stereo not drawn) [2-Amino-N-methyl-α-(3-methyl-2-thienyl)-4-trifluoromethylbenzeneethanamine]
[1]
  ED50: 26.4 mg/kg

## CNC(Cc1ccccc1N)c1sccc1C (stereo not drawn) [2-Amino-N-methyl-α-(3-methyl-2-thienyl)benzeneethanamine]
[4]
  ED50: 4.6 mg/kg
[1]
  ED50: 26.7 mg/kg
[3]; dose 20 m.g./kg i.p.
  Anti-Conflict Response, % Change Compared to Control: +807%
[3]; dose 40 m.g./kg i.p.
  Anti-Conflict Response, % Change Compared to Control: +547%
[3]; dose 60 m.g./kg i.p.
  Anti-Conflict Response, % Change Compared to Control: +242%

## CC1=Nc2ccccc2CC(c2ccc(C)s2)N1C (stereo not shown) [4,5-Dihydro-2,3-dimethyl-4-(5-methyl-2-thienyl)-3H-1,3-benzodiazepine]
[2]
  ED50: 12.2 mg/kg

## CNC(Cc1ccccc1N)c1cccs1 (stereo not drawn) [2-Amino-N-methyl-α-(2-thienyl)benzeneethanamine dihydrochloride hemihydrate]
[4]
  ED50: 30.4 mg/kg

## CCC1=Nc2ccccc2CC(c2sccc2C)N1C.Cl.O (stereo not shown) [4,5-Dihydro-2-ethyl-3-methyl-4-(3-methyl-2-thienyl)-3H-1,3-benzodiazepine hydrochloride monohydrate]
[2]; [5]
  ED50: 5.3 mg/kg
